Results published in ChEMBL document CHEMBL1201862, “PubChem BioAssay data set” (2004).
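In this assay, cells in 96-well plates receive the compound at five concentrations for 48 hours. Endpoints are linearly interpolated between the surrounding concentrations. At the GI50, growth is halved.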 Active and inactive are the calls of the source. Cut-off read from the data, not from the text of the source: active = GI50 up to about 1.1 µM and inactive = higher.

Assays:
Assay in all cases: growth of human tumour cells (NCI), 48 h
RXF 393 = system: RXF 393
HT-29 = system: HT-29
SF-295 = system: SF-295
SF-539 = system: SF-539
OVCAR-8 = system: OVCAR-8
SN12C = system: SN12C
SK-MEL-28 = system: SK-MEL-28
NCI-H23 = system: NCI-H23
ACHN = system: ACHN
OVCAR-5 = system: OVCAR-5
U-251 = system: U-251
KM12 = system: KM12
OVCAR-3 = system: OVCAR-3
SK-OV-3 = system: SK-OV-3
UACC-62 = system: UACC-62
NCI-H522 = system: NCI-H522

SMILES | GI50 (RXF 393) | GI50 (HT-29) | GI50 (SF-295) | GI50 (SF-539) | GI50 (OVCAR-8) | GI50 (SN12C) | GI50 (SK-MEL-28) | GI50 (NCI-H23) | GI50 (ACHN) | GI50 (OVCAR-5) | GI50 (U-251) | GI50 (KM12) | GI50 (OVCAR-3) | GI50 (SK-OV-3) | GI50 (UACC-62) | GI50 (NCI-H522)
COc1ccc(-c2cc3[nH]nc(N)c3c(=O)o2)cc1 | 55.3 µM (inactive) | > 100 µM (inactive) | > 100 µM (inactive) | > 100 µM (inactive) | > 100 µM (inactive) | > 100 µM (inactive) | > 100 µM (inactive) | > 100 µM (inactive) | > 100 µM (inactive) | > 100 µM (inactive) | 89.9 µM (inactive) | > 100 µM (inactive) |  |  |  | 
COc1cccc(NC(=O)/C(CC(=O)CC(c2ccccc2)c2c(O)c3ccccc3oc2=O)=N\NC(C)(C)C)c1OC (configuration not stated) |  |  | > 100 µM (inactive) | 34.5 µM (inactive) | > 100 µM (inactive) |  | > 100 µM (inactive) |  | 34.4 µM (inactive) | > 100 µM (inactive) | > 100 µM (inactive) | 34 µM (inactive) | 78.9 µM (inactive) | > 100 µM (inactive) | 33.3 µM (inactive) | 
COC(=O)CC1(O)C(=O)OCc2c1cc1n(c2=O)Cc2c-1nc1ccccc1c2OC (configuration not stated) | 0.508 µM (active) | 2.17 µM (inactive) | 0.151 µM (active) | 0.111 µM (active) | 0.726 µM (active) | 0.097 µM (active) | 27.5 µM (inactive) | 0.188 µM (active) | 0.0689 µM (active) | 0.902 µM (active) | 0.0964 µM (active) | 5.27 µM (inactive) | 3.86 µM (inactive) | 0.266 µM (active) | 0.0869 µM (active) | 0.29 µM (active)
Cc1cc(N(CCC#N)CCC#N)ccc1/C=C1N=C(/C=C\c2ccccc2)OC\1=O | > 100 µM (inactive) | > 100 µM (inactive) | > 100 µM (inactive) | > 100 µM (inactive) | > 100 µM (inactive) | > 100 µM (inactive) | > 100 µM (inactive) | > 100 µM (inactive) | > 100 µM (inactive) | > 100 µM (inactive) | > 100 µM (inactive) | > 100 µM (inactive) | > 100 µM (inactive) | > 100 µM (inactive) | > 100 µM (inactive) | > 100 µM (inactive)
CCOC(=O)/C=C1\Nc2ccccc2C(c2ccccc2)=NC1OC(C)=O (configuration not stated) |  | 57.5 µM (inactive) | > 100 µM (inactive) | > 100 µM (inactive) | > 100 µM (inactive) | > 100 µM (inactive) | > 100 µM (inactive) | > 100 µM (inactive) | > 100 µM (inactive) |  | > 100 µM (inactive) | > 100 µM (inactive) | > 100 µM (inactive) | > 100 µM (inactive) | 79.6 µM (inactive) | > 100 µM (inactive)
O=C(Cc1nc2ccc([N+](=O)[O-])cc2nc1O)C(=O)Nc1ccccc1[N+](=O)[O-] | > 100 µM (inactive) | > 100 µM (inactive) | > 100 µM (inactive) | > 100 µM (inactive) |  |  | > 100 µM (inactive) | > 100 µM (inactive) | > 100 µM (inactive) | > 100 µM (inactive) |  | 86.3 µM (inactive) | > 100 µM (inactive) | > 100 µM (inactive) | > 100 µM (inactive) | 20.3 µM (inactive)
O=C(N/C(=C\c1cc(Cl)ccc1Cl)c1nc2c(O)nc(S)nc2[nH]1)c1ccccc1 | 21.6 µM (inactive) | 20.8 µM (inactive) | 37.4 µM (inactive) | 27.7 µM (inactive) | 25.7 µM (inactive) | 30.1 µM (inactive) | 28.1 µM (inactive) | 25.8 µM (inactive) | 37.1 µM (inactive) | > 100 µM (inactive) | 32.1 µM (inactive) | 23.4 µM (inactive) | 43.5 µM (inactive) | 98.2 µM (inactive) | 19.7 µM (inactive) | 38 µM (inactive)
COC(=O)c1cc(Cl)ccc1NC(=O)c1ccc([N+](=O)[O-])cc1 | 21.4 µM (inactive) | 14.8 µM (inactive) | 2.42 µM (inactive) | 20.4 µM (inactive) | 15.9 µM (inactive) |  | 28.2 µM (inactive) | 18.8 µM (inactive) | 5.97 µM (inactive) | > 100 µM (inactive) | 7 µM (inactive) | 19.8 µM (inactive) | 15.6 µM (inactive) | 19.7 µM (inactive) | 24.2 µM (inactive) | 
C=C(C)C(=O)OC1CCC2(C)C(CCC3C2CCC2(C)C(c4ccc(=O)oc4)CC4OC432)C1 (configuration not stated) | 2.78 µM (inactive) | 7.94 µM (inactive) | 5.07 µM (inactive) | 5.35 µM (inactive) | 5.51 µM (inactive) | 3.61 µM (inactive) | 12.5 µM (inactive) | 3.49 µM (inactive) |  | 30.4 µM (inactive) | 6.73 µM (inactive) | 6.4 µM (inactive) | 4.57 µM (inactive) | 20.5 µM (inactive) | 3.33 µM (inactive) | 2.95 µM (inactive)
